Row | melting point [°C] | Compound
1 | 96 to 98 | COC1=C(OC)C(=O)C(CCCCCCCCCC(=O)N[C@H](Cc2ccccc2)C(=O)O)=C(C)C1=O
2 | 104 to 105 | CC1(C)OCC(COC(=O)Cc2cccc3c(=O)cc(C4=CCCCC4)oc23)O1 (configuration not stated)
3 | 119 to 120 | CN(c1ccc(Cl)cc1)S(=O)(=O)c1cccc(C(=O)Nc2ccc(Cl)cc2F)c1
4 | 171 to 173 | Cc1c(C#N)c(=O)n(-c2cc(C(=O)OC(C)C)c(Cl)cc2F)c(=O)n1C
5 | 228 | O=C(Nc1ccc2ccc(Br)nc2n1)c1ccc(F)cc1
6 | 140 to 142 | Cc1ccc2cccc(OCc3c(Cl)ccc(S(=O)(=O)NCc4ccccc4)c3Cl)c2n1
7 | 67 to 68.5 | CCN(CC#N)S(=O)(=O)Cc1cccc(C(F)(F)F)c1
8 | 136 to 140 | O=C(NCC12CC3CC(CC(C3)C1)C2)c1cc(-c2nccnc2N2CCC(C(=O)O)CC2)ccc1Cl
9 | 131 to 132 | N#CCNC(=O)c1ccnc(Cl)c1
10 | 255 | O=C(Nc1nccs1)c1c(C(O)CO)nc2c(C(F)(F)F)cccc2c1O (configuration not stated)
11 | 250 | O=C1Nc2cccc(Cl)c2C(=O)N2CC=C[C@@H]12
12 | 141 to 143 | O=C1C(=O)N(Cc2ccc(Br)cc2F)c2c1cccc2C(F)(F)F
13 | 83 to 86 | COC(=O)C(C)c1ccc(-c2ccccc2[N+](=O)[O-])cc1 (configuration not stated)
14 | 224 | Cc1ccc(O)c(Cn2c(NC3CCNC(CCN4CCOCC4)C3)nc3ccc(C=Cc4ccccc4)cc32)n1 (configuration not stated)
15 | 151 to 153 | CCOC(=O)c1cnn(C)c1NC(=O)Nc1ccccc1
16 | 86 to 87 | CCOC(=O)Cn1ncc(-c2ccc(F)cc2)c1-c1ccccc1
17 | 144 to 145 | COC(=O)CCC(=O)c1cc2c(=O)c3ccccc3ccc2s1
18 | 148 to 149 | COc1cc(Oc2ccc(S(C)(=O)=O)nc2)cc2cc(C3=NCC(CC(=O)N4CCOCC4)S3)[nH]c12 (configuration not stated)
19 | 119 to 120 | NCCCNC(=O)Cn1ncc(-c2ccccc2)c1-c1ccccc1
20 | 166 to 168 | CCOC(=O)C(C)(C)n1c(=O)[nH]c2cc(F)c(F)cc2c1=O
21 | 37 to 38 | Cc1ccc(S(=O)(=O)O[C@H](C)COc2c(N)ccc(F)c2F)cc1
22 | 93 to 94 | CC(C)(C)NCC(O)COc1ccccc1-c1ccc(Cl)nn1 (configuration not stated)
23 | 67 to 68 | CCCC=Cc1c(C(C)C)nc(C(C)C)c(C(=O)OCC)c1-c1ccc(CC)cc1
24 | 135 to 136 | CCOC(=O)c1[nH]c(-n2ccc(OCc3ccccc3)cc2=O)nc1C

Row | melting point [°C] | Compound
25 | 220 to 221 | CC(=O)OC1CC2=CC(=O)C3C4CCCC4(C)CCC3C2(C)C(OC(C)=O)C1 (configuration not stated)
26 | 220 to 223 | Cc1ccc(-c2cccc(/C=C/C(=O)Nc3ccc(CO)cc3)c2)cc1
27 | 227 to 230 | Nc1nc(N)c(C(=O)N=CNNC(=O)n2ccnc2)nc1F
28 | 46 to 62 | CON1C(=O)CC2(CCN(C(=O)C3=CN(C)C=CC3)CC2)C1=O
29 | 139 to 141 | COc1cc(/C=C/C(=O)CC(=O)c2ccc(I)cc2)ccc1O
30 | 216 to 218 | N#Cc1ccc(-c2ccc(-c3ccc(C#N)o3)cc2)cc1
31 | 75 to 77 | CCN(C=O)Cc1ccc(NCCN(CC)CC)c2c(=O)c3ccccc3sc12
32 | 175 to 177 | COc1ccccc1N1CCN(CCNC(=O)CCN2CC=C(c3c[nH]c4cc(F)ccc34)CC2)CC1
33 | 222 to 226 | CC(C)Cn1cnc2c(N)nc3c(c21)NCCC3
34 | 168 to 170 | O=C1c2ccccc2C(=O)N1n1cccc1-c1ccccc1
35 | 92 | Fc1cnc(OC(c2ccnc3cc(Cl)ccc23)C(F)(F)F)nc1 (configuration not stated)
36 | 294 | O=c1c2ccccc2n(-c2cccc([N+](=O)[O-])c2)c2nc3ccccc3n12
37 | 218 to 220 | CC(C)c1ccc(S(=O)(=O)c2ccccc2)cc1S(=O)(=O)NC1CCN(C(=O)c2ccc(F)cc2)CC1
38 | 268 to 270 | Cc1cc(C)n(-c2nc(Nc3ccc(N4CCOCC4)cc3)c3ccccc3n2)n1
39 | 153 to 155 | Clc1ccc2c(c1)CCc1cccnc1C2N1CCNCC1 (single isomer, unassigned; (+))
40 | 70 to 72 | COc1ccc(C=NO)cc1C
41 | 139 to 140 | CCOC(=O)c1sc(Oc2ccc(-n3cccc3)cc2)c2c1CCc1cnn(C)c1-2
42 | 53 to 54 | Cc1cc(Oc2cccc(C(F)(F)F)c2)nn1C(=O)Nc1ccccc1
43 | 80 to 81 | CC(C)N1c2ccccc2N(C(C)C)c2ccccc21
44 | 96 to 98 | CC(C)(Oc1ccc(C#N)cc1)C(O)Cc1ccncn1 (configuration not stated)
45 | 98.5 to 99.5 | Cc1c(S(=O)(=O)C[N+](=O)[O-])cc2c(c1C)OC(C)(C)CC2
46 | 72 to 73.5 | Cc1cc(Oc2nn(C)c(C(F)(F)F)c2Cl)ccc1[N+](=O)[O-]
47 | 230 to 232 | Cc1ccc(-n2nc(C)c(C(=O)O)n2)cc1
48 | 216 to 217 | Cc1ccc(Cc2cc3c(cc2/C=C/c2ccc(C(=O)O)cc2)C(C)(C)CCC3(C)C)cc1

Row | melting point [°C] | Compound
49 | 178 | CCCCCCCCCCCCCCCCCCOC(=O)Nc1ccc(NC(=O)NS(=O)(=O)c2ccc3ccccc3c2)cc1
50 | 151 to 153 | COC1(c2csc(Sc3ccc(/C(C)=N/O)cn3)c2)CCOCC1
51 | 172 | CC(=O)Nc1cc2c(cc1C#N)CCC2
52 | 85 to 87 | O=C(Cc1cccc(C(F)(F)F)c1)Cn1cncn1
53 | 70 to 71.5 | CC(C)(CC(N)=O)c1ccc2c(c1)OCO2
54 | 55 to 57 | Cc1ccc(Cl)cc1C(=O)CO
55 | 86 to 88 | CCOP(=O)(Cc1ccc2nc(-c3ccc(OC)cc3)oc2c1)OCC
56 | 164 to 166 | CC(=O)NC[C@H]1CN(c2ccc(N3CCC4(CCO4)CC3)c(F)c2)C(=O)O1
57 | 147 to 148 | O=C(Nc1ccccc1I)c1ccccc1
58 | 135 to 140 | O=c1cc(CCO)c2cc(F)ccc2n1Cc1cc(Br)c(Br)c(Br)c1
59 | 224 to 225 | CN(C)c1ccc(-c2cnn(-c3cccc(C(=O)O)c3)c2)cc1
60 | 79 to 81 | OCc1cccc2nnsc12
61 | 62 to 63 | CC(C)CCC(=O)Nc1c(C(O)(C(F)(F)F)C(F)(F)F)ccc2ccccc12
62 | 210 | N#Cc1ccc(C(=O)c2cc(C(F)(F)F)ccc2S)cc1
63 | 205 to 207 | OCCCc1c[nH]c2ccc(-n3cnnc3)cc12
64 | 141 to 142 | O=C(CSc1ccc(C(F)(F)F)cn1)C12CC3CC(CC(C3)C1)C2
65 | 198 | O=C(O)c1ccc(CN2Cc3ccccc3Cc3ccccc32)cc1
66 | 73 to 74 | N=C(Nc1ccc(CNCc2ccccc2)cc1)c1cccs1
67 | 73 to 74 | O=C(CCCCCBr)NC1CCCCC1
68 | 128 | Cc1ccc(Nc2cc(NCc3ccccc3)c(C(=O)O)cc2S(N)(=O)=O)cc1
69 | 264 to 266 | CC(C)(C)NC(=O)c1ccccc1C(c1ccc(O)cc1)c1ccc(O)cc1
70 | 140 to 141 | CCCCCc1ccc(C(=O)Nc2ccc(-n3nc(C(F)(F)F)cc3C(F)(F)F)cc2)c(=O)o1

Row | Compound | melting point [°C]
71 | Clc1ccc(N2CCN(Cc3ccc4[nH]ccc4c3)CC2)cc1 | 175 to 176
72 | Cc1ccnc2c1N=C(Cl)c1cccnc1N2C1CC1 | 196 to 198

Reference: a melting point compilation (Tetko et al.; mined from patent text by program, amines drawn as free bases though some values may be those of a salt)
